System: cabbage moth (Plutella xylostella)
Experiment: Cabbage moth mortality test on sprayed cabbage seedling (Test method 23)
Format: in vivo
Conditions: 500 ppm, 20 mL/seedling sprayed on cabbage; 5 second instar larvae; after 5 days
Procedure: The present compound is made to a formulation according to a similar method to that described in the Formulation Example 6, and thereto is added water containing 0.03 v/v % of a spreader to prepare a diluted solution containing a prescribed concentration of the test compound.
Cabbage (Brassicae oleracea) seedling (on the developmental stage of the second to third true leaf) is planted in a cup, and the diluted solutions are sprayed into the seedling at a ratio of 20 mL/seedling. Thereafter, the stem and leaf of the seedling is cut out and is then installed into the container that is covered with the filter paper. Five (5) cabbage moth (Plutella xylostella) at the second instar larval stages are released into the cup. After 5 days, the surviving insects are counted, and the mortality of insects is calculated by the following equation. Mortality (%)={1−the number of the surviving insects/5}×100

SMILES: COC=C(Cc1cc(OCc2ccccc2)ccc1C)C(=O)OC [compound 28]
- mortality: 100%
